Measured values reported in the NIST ThermoML archive (doi:10.1021/je900749a).

Assay: cn = amount concentration of the nth substance listed, in mol/dm3
Conditions: 300 K, Ring tensiometer

CN(C)CCC=C1c2ccccc2CCc2ccccc21.Cl + O
Conditions	surface tension liquid-gas [mN/m]
c1 = 0.001584	69.15
c1 = 0.003138	62.75
c1 = 0.009057	55.25
c1 = 0.01455	50.75
c1 = 0.02441	46.1
c1 = 0.02885	44.55
c1 = 0.03301	43.15
c1 = 0.0406	42.55
c1 = 0.04572	42.5

CN(C)CCCN1c2ccccc2CCc2ccccc21.Cl + O
Conditions	surface tension liquid-gas [mN/m]
c1 = 0.003658	68.55
c1 = 0.007143	62.15
c1 = 0.01364	54.6
c1 = 0.01957	51.7
c1 = 0.03	47.05
c1 = 0.03889	43.75
c1 = 0.04287	43
c1 = 0.04655	42.3
c1 = 0.05	42.3
c1 = 0.05769	42.3

CN(C)CCCN1c2ccccc2Sc2ccc(Cl)cc21.Cl + O
Conditions	surface tension liquid-gas [mN/m]
c1 = 0.001381	65.7
c1 = 0.002344	60.5
c1 = 0.003289	57.15
c1 = 0.004762	53.4
c1 = 0.006542	50.5
c1 = 0.009091	47.15
c1 = 0.01228	45.2
c1 = 0.01525	44.15
c1 = 0.01666	44
c1 = 0.01803	44.05
c1 = 0.01936	44

CC(CN1c2ccccc2Sc2ccccc21)N(C)C.Cl (stereo not given) [promethazine hydrochloride] + O
Conditions	surface tension liquid-gas [mN/m]
c1 = 0.002941	71.3
c1 = 0.005769	64.15
c1 = 0.01111	56.45
c1 = 0.01842	50.35
c1 = 0.02903	46.45
c1 = 0.03637	43.4
c1 = 0.04287	42.55
c1 = 0.04865	42.2
c1 = 0.05385	42.1
c1 = 0.05853	42.15
